Series [1] deals with T1, calcitonin receptor (hCTR) (Homo sapiens, UniProt P30988).
T1 construct: host or cells: CHO-K1/CALCR/Ga15 cells, further stably transfected with a CRE-luciferase plasmid
T1 sequence (P30988 25-474): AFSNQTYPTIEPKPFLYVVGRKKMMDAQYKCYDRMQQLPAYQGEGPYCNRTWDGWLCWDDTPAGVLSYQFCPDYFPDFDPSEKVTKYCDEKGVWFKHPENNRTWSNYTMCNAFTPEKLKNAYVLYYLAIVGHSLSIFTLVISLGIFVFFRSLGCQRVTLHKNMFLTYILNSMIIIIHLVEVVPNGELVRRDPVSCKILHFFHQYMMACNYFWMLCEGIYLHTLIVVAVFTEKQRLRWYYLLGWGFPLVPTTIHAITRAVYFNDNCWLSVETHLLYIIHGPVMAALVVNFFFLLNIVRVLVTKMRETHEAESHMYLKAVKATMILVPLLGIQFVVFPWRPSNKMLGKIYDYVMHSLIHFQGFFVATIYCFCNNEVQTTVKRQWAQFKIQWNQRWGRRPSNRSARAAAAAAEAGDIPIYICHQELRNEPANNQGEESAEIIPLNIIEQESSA
The experiment in a line: Calcitonin receptor agonism, CRE-luciferase assay in stably transfected CHO-K1/CALCR/Ga15 cells. It is filed as cell-based. As to conditions: for Fold change in activity against hCTR: relative to D1 as benchmark; for EC50: incubation of 24 hours, Table 4, read-out: EC50, activity against the calcitonin receptor in cells.
Description: Using the standard protocol, CHO-K1/CALCR/Ga15 cells (purchased from GenScript, with the calcitonin receptor constructed already) were transfected with a plasmid containing a luciferase expression cassette driven by multiple copies of cAMP response elements (CREs). The cells were cultured in an F12 medium containing 200 ug/mL Zeocin, 2 ug/mL puromycin, and 100 ug/mL hygromycin to afford a stably transfected calcitonin receptor/CRE-luc cell line.
To each well of a white 96-well plate was added 50 μL of the tested sample solution at a respective concentration.
The stably transfected calcitonin receptor/CRE-luc CHO cells were resuspended in the growth medium at a certain density, and 50 μL of the cell suspension was added at a density of about 20,000 cells per well to the white 96-well plate containing the tested sample solution. After incubation of 24 hours at 37° C. and 5% CO2, 100 μL of a Luciferase substrate was added to each well, incubated for 3 minutes, and finally was tested for luminescence on SpectraMax L (Molecular Devices) with the software SoftMax Pro 7.0.3 GxP. A standard curve was plotted using the fluorescent intensities for calculation of EC50.

Series [2] can be described thus: Heat accelerated stability assay of polypeptide solutions (40° C., pH about 7.4), reversed phase chromatography. In kind it is physicochemical. Particulars: 40° C.; for Concentration change on 7 d / Concentration change on 26 d: pH about 7.4, 1 mg/mL; for Concentration change on 7 d / Purity change on 7 d: Day 7; for Concentration change on 26 d / Purity change on 26 d: Day 26; for Purity change on 7 d / Purity change on 26 d: reversed phase chromatography 214 nm; for Purity change on 7 d: purity on 7 d − purity on 0 d; for Purity change on 26 d: purity on 26 d − purity on 0 d. An outline of the steps:
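Polypeptide derivative lyophilisate (1 mg/mL) with sodium dihydrogen phosphate (1.42 mg/mL) in water, pH about 7.4, sterile-filtered, vialed and held at 40° C; sampled on days 7 and 26. After centrifugation, concentration and purity (target/total peak area) by C18 RP-HPLC, TFA/ACN gradient, 280 and 214 nm.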

The target in the next series is T2, amylin receptor (hAMY3R) (Homo sapiens, UniProt O60896+P30988).
T2 construct: host or cells: CHO-K1/Ga15/AMY3 cells, further stably transfected with a CRE-luciferase plasmid
T2 sequence (P30988 25-474): T1 sequence (P30988 25-474)
T2 sequence (O60896 24-148): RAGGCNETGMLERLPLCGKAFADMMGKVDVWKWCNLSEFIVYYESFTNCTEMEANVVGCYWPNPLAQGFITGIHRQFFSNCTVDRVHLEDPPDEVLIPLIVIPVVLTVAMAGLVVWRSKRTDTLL
Put plainly: Amylin receptor agonism testing, CRE-luciferase assay in stably transfected CHO-K1/Ga15/AMY3 cells. Particulars: for Fold change in activity against hAMY3R: relative to D1 as benchmark. It is filed as cell-based.

Where [3] appears, read: incubation of 24 hours, Table 3, read-out: EC50, activity against the amylin receptor in cells.

SMILES strings stand for the structures. Like-named read-outs stand apart in the source and are kept apart here. Square brackets hold non-standard residues; d marks the D form. Peptide text beside a SMILES is read from it. * marks the point of attachment. C20 diacid = O=C(O)CCCCCCCCCCCCCCCCCCC(=O)*; C18 diacid = O=C(O)CCCCCCCCCCCCCCCCC(=O)*; Trx = NC[C@H]1CC[C@H](C(=O)O)CC1; AEEA = NCCOCCOCC(=O)O; Inp = O=C(O)C1CCNCC1

What is called EC50 is the concentration at which the effect is half-maximal.

Regarding `CC(C)C[C@H](NC(=O)[C@H](CCCNC(=N)N)NC(=O)CNC(=O)[C@H](CC(C)C)NC(=O)[C@@H](NC(=O)[C@H](C)NC(=O)[C@@H](NC(=O)[C@H](CO)NC(=O)[C@H](CC(C)C)NC(=O)[C@H](CCC(N)=O)NC(=O)[C@H](CO)NC(=O)[C@H](C)NC(=O)[C@H]1CC[C@H](CNC(=O)CCCCCCCCCCCCCCCCC(=O)O)CC1)[C@@H](C)O)C(C)C)C(=O)N[C@@H](CO)C(=O)N[C@@H](CC(=O)O)C(=O)N[C@@H](CCC(=O)O)C(=O)N[C@@H](CC(C)C)C(=O)N[C@@H](Cc1c[nH]cn1)C(=O)N[C@@H](CCCNC(=N)N)C(=O)N[C@@H](CC(C)C)C(=O)N[C@@H](CCC(N)=O)C(=O)N[C@@H](CC(=O)O)C(=O)N[C@@H](Cc1ccc(O)cc1)C(=O)N1CCC[C@H]1C(=O)N[C@@H](CCCNC(=N)N)C(=O)N[C@H](C(=O)N[C@@H](CC(=O)O)C(=O)N[C@H](C(=O)NCC(=O)N[C@@H](CO)C(=O)NCC(=O)N[C@@H](CO)C(=O)N1CCC[C@H]1C(N)=O)C(C)C)[C@@H](C)O` [M15] ({C18 diacid-Trx}-ASQLSTAVLGRLSDELHRLQDYPRTDVGSGSP-NH2), the “Fold change in activity against hCTR” value in series [1] is reported as 0.183. In series [2], the “Concentration change on 7 d” value is listed as “No change (concentration change of less than 1% (denoted as “no change”))”, the “Concentration change on 26 d” value is −10.824%, the “Purity change on 7 d” value is listed as “No change” and the “Purity change on 26 d” value is −5.67%. For the same compound, the EC50 at amylin receptor (hAMY3R) (Table 5 integrated analysis, read-out: hAMY3R EC50) was found to be 0.119 nM. Also, the “Fold change in activity against hAMY3R” value at amylin receptor (hAMY3R) was found to be 0.303.
Regarding `CC(C)C[C@H](NC(=O)[C@H](CCCNC(=N)N)NC(=O)CNC(=O)[C@H](CC(C)C)NC(=O)[C@@H](NC(=O)[C@H](C)NC(=O)[C@@H](NC(=O)[C@H](CO)NC(=O)[C@H](CC(C)C)NC(=O)[C@H](CCC(N)=O)NC(=O)[C@H](CO)NC(=O)[C@H](C)NC(=O)C1CCN(C(=O)CCCCCCCCCCCCCCCCCCC(=O)O)CC1)[C@@H](C)O)C(C)C)C(=O)N[C@@H](CO)C(=O)N[C@@H](CC(=O)O)C(=O)N[C@@H](CCC(=O)O)C(=O)N[C@@H](CC(C)C)C(=O)N[C@@H](Cc1c[nH]cn1)C(=O)N[C@@H](CCCNC(=N)N)C(=O)N[C@@H](CC(C)C)C(=O)N[C@@H](CCC(N)=O)C(=O)N[C@@H](CC(=O)O)C(=O)N[C@@H](Cc1ccc(O)cc1)C(=O)N1CCC[C@H]1C(=O)N[C@@H](CCCNC(=N)N)C(=O)N[C@H](C(=O)N[C@@H](CC(=O)O)C(=O)N[C@H](C(=O)NCC(=O)N[C@@H](CO)C(=O)NCC(=O)N[C@@H](CO)C(=O)N1CCC[C@H]1C(N)=O)C(C)C)[C@@H](C)O` [M16] ({C20 diacid-Inp}-ASQLSTAVLGRLSDELHRLQDYPRTDVGSGSP-NH2), in series [1], the EC50 is 0.376 nM and the “Fold change in activity against hCTR” value is given as 0.229. In addition, in series [2], the “Concentration change on 7 d” value is given as −2.883%, the “Concentration change on 26 d” value is reported as −3.036%, the “Purity change on 7 d” value turned out to be 3.42% and the “Purity change on 26 d” value is 2.18%. Further, at amylin receptor (hAMY3R), the “Fold change in activity against hAMY3R” value turned out to be 0.439.
In the case of `CC(C)C[C@H](NC(=O)[C@H](CCCNC(=N)N)NC(=O)CNC(=O)[C@H](CC(C)C)NC(=O)[C@@H](NC(=O)[C@H](C)NC(=O)[C@@H](NC(=O)[C@H](CO)NC(=O)[C@H](CC(C)C)NC(=O)[C@H](CCC(N)=O)NC(=O)[C@H](CO)NC(=O)[C@H](C)NC(=O)C1CCN(C(=O)CCCCCCCCCCCCCCCCC(=O)O)CC1)[C@@H](C)O)C(C)C)C(=O)N[C@@H](CO)C(=O)N[C@@H](CC(=O)O)C(=O)N[C@@H](CCC(=O)O)C(=O)N[C@@H](CC(C)C)C(=O)N[C@@H](Cc1c[nH]cn1)C(=O)N[C@@H](CCCNC(=N)N)C(=O)N[C@@H](CC(C)C)C(=O)N[C@@H](CCC(N)=O)C(=O)N[C@@H](CC(=O)O)C(=O)N[C@@H](Cc1ccc(O)cc1)C(=O)N1CCC[C@H]1C(=O)N[C@@H](CCCNC(=N)N)C(=O)N[C@H](C(=O)N[C@@H](CC(=O)O)C(=O)N[C@H](C(=O)NCC(=O)N[C@@H](CO)C(=O)NCC(=O)N[C@@H](CO)C(=O)N1CCC[C@H]1C(N)=O)C(C)C)[C@@H](C)O` [M17] ({C18 diacid-Inp}-ASQLSTAVLGRLSDELHRLQDYPRTDVGSGSP-NH2), in series [1], the half-maximal effective concentration (EC50) was 0.259 nM and the “Fold change in activity against hCTR” value is 0.332. Further, in series [2], the “Concentration change on 7 d” value is recorded as −1.927%, the “Concentration change on 26 d” value is −5.985%, the “Purity change on 7 d” value is reported as −1% and the “Purity change on 26 d” value is −3.9%. The “Fold change in activity against hAMY3R” value on amylin receptor (hAMY3R) worked out at 0.571. Moreover, the “increase in the ratio of activity against the amylin receptor to agonistic activity against the calcitonin receptor” value on amylin receptor (hAMY3R) (relative to the benchmark D1) worked out at 1.7 fold.
As to `CC(C)C[C@H](NC(=O)[C@H](CCCNC(=N)N)NC(=O)CNC(=O)[C@H](CC(C)C)NC(=O)[C@@H](NC(=O)[C@H](C)NC(=O)[C@@H](NC(=O)[C@H](CO)NC(=O)[C@H](CC(C)C)NC(=O)[C@H](CCC(N)=O)NC(=O)[C@H](CO)NC(=O)[C@H](C)NC(=O)COCCOCCNC(=O)COCCOCCNC(=O)[C@H](CCC(=O)O)NC(=O)CCCCCCCCCCCCCCCCC(=O)O)[C@@H](C)O)C(C)C)C(=O)N[C@@H](CO)C(=O)N[C@@H](CC(=O)O)C(=O)N[C@@H](CCC(=O)O)C(=O)N[C@@H](CC(C)C)C(=O)N[C@@H](Cc1c[nH]cn1)C(=O)N[C@@H](CCCNC(=N)N)C(=O)N[C@@H](CC(C)C)C(=O)N[C@@H](CCC(N)=O)C(=O)N[C@@H](CC(=O)O)C(=O)N[C@@H](Cc1ccc(O)cc1)C(=O)N1CCC[C@H]1C(=O)N[C@@H](CCCNC(=N)N)C(=O)N[C@H](C(=O)N[C@@H](CC(=O)O)C(=O)N[C@H](C(=O)NCC(=O)N[C@@H](CO)C(=O)NCC(=O)N[C@@H](CO)C(=O)N1CCC[C@H]1C(N)=O)C(C)C)[C@@H](C)O` [M24] ({C18 diacid}-E[AEEA][AEEA]ASQLSTAVLGRLSDELHRLQDYPRTDVGSGSP-NH2), in series [1], the EC50 was 0.081 nM and the “Fold change in activity against hCTR” value is given as 1.061. Further, in series [2], the “Concentration change on 26 d” value is given as −3.954%, the “Purity change on 7 d” value was −1.59% and the “Purity change on 26 d” value is given as −7.24%. The half-maximal effective concentration (EC50) at amylin receptor (hAMY3R) (setting [3]) is 0.007 nM. The “Fold change in activity against hAMY3R” value at amylin receptor (hAMY3R) is 5.143.
In the case of `CC(C)C[C@H](NC(=O)[C@H](CCCNC(=N)N)NC(=O)CNC(=O)[C@H](CC(C)C)NC(=O)[C@@H](NC(=O)[C@H](C)NC(=O)[C@@H](NC(=O)[C@H](CO)NC(=O)[C@H](CC(C)C)NC(=O)[C@H](CCC(N)=O)NC(=O)[C@H](CO)NC(=O)[C@H](C)NC(=O)COCCOCCNC(=O)COCCOCCNC(=O)[C@H](CC(=O)O)NC(=O)CCCCCCCCCCCCCCCCC(=O)O)[C@@H](C)O)C(C)C)C(=O)N[C@@H](CO)C(=O)N[C@@H](CC(=O)O)C(=O)N[C@@H](CCC(=O)O)C(=O)N[C@@H](CC(C)C)C(=O)N[C@@H](Cc1c[nH]cn1)C(=O)N[C@@H](CCCNC(=N)N)C(=O)N[C@@H](CC(C)C)C(=O)N[C@@H](CCC(N)=O)C(=O)N[C@@H](CC(=O)O)C(=O)N[C@@H](Cc1ccc(O)cc1)C(=O)N1CCC[C@H]1C(=O)N[C@@H](CCCNC(=N)N)C(=O)N[C@H](C(=O)N[C@@H](CC(=O)O)C(=O)N[C@H](C(=O)NCC(=O)N[C@@H](CO)C(=O)NCC(=O)N[C@@H](CO)C(=O)N1CCC[C@H]1C(N)=O)C(C)C)[C@@H](C)O` [M26] ({C18 diacid}-D[AEEA][AEEA]ASQLSTAVLGRLSDELHRLQDYPRTDVGSGSP-NH2), in series [1], the EC50 was 0.024 nM. Besides, in series [2], the “Concentration change on 7 d” value is recorded as −2.402%, the “Concentration change on 26 d” value is −2.235%, the “Purity change on 7 d” value is −2.39% and the “Purity change on 26 d” value is recorded as −2.68%. In addition, on amylin receptor (hAMY3R) (setting [3]), the concentration for a half-maximal effect (EC50) amounted to 0.008 nM.

The record behind these values is US20260265305A1, “POLYPEPTIDE DERIVATIVE FOR ORAL DELIVERY” (Hangzhou Sciwind Biosciences Co., Ltd., priority 2023, published 2026).
